Measurements from patent US10292390B2, “Inhibition and dispersion of bacterial biofilms with 2-aminobenzimidazole derivatives” (WISCONSIN ALUMNI RESEARCH FOUNDATION, priority 2011, dated 2019).
Entries after “also recorded” stand apart in the source; their conditions may differ.

What was measured:
[1] = system: Gram-positive bacteria; conditions: WO 2010/144686 (7); ref. 34 (18); cited from earlier work
[2] = system: P. aeruginosa PAO1 gen-gfp; experiment: constitutive GFP production (general protein synthesis); format: cell-based, Pseudomonas aeruginosa; conditions: 24 h; dose-response
Description: Compounds 7 and 21 were tested for their effect on general protein synthesis in P. aeruginosa. In these assays a P. aeruginosa strain that constitutively produced GFP was employed. […] [59]
The constitutively-expressing genomic (gen)-GFP strain, PAO1 gen-gfp, was prepared using the mini-Tn7 transposon system reported by Lambertsen et al. and Koch et al. to introduce the Tn7 element miniTn7-gfp2 into the neutral chromosomal site attTn7 in the PAO1 genome. The Tn7 element miniTn7-gfp2 was chosen for these studies because it encodes for the same GFP variant, GFPmut3b, used in our QS reporters, discussed herein below. However, rather than being an unstable GFP under the control of the laslI or rhII QS-dependent promoter as in the QS reporters, GFP is stable and under the control of the constitutive E. coli lac-promoter derivative PA1/04/03. The use of this strain allows a comparison of QS-dependent and non-QS-dependent gene expression in the presence of 7 and 21.
Compounds 7 and 21 were evaluated for their ability to affect constitutive GFP production in the P. aeruginosa PAO1 gen-gfp strain using the static biofilm assay conditions described above. […] Measurements of FL500/540 and OD600 were made at 24 h, after which the samples were evaluated for biofilm formation using the CV procedure. […]

[3] = system: preformed P. aeruginosa biofilms; experiment: biofilm dispersion assay (preformed 24 h-old biofilms, crystal violet); format: cell-based, Pseudomonas aeruginosa; conditions: for dispersion of preformed biofilm / DC50: 24 h-old biofilm, additional 24 h with compound; for effect on final OD600 measurement during dispersion: 48 h; for DC50: Pseudomonas aeruginosa, read-out: half maximal dispersion DC50
Description: Compounds capable of not only inhibiting biofilm growth, but also dispersing preformed biofilms, are of particular value for a range of clinical and other applications. The ability of compounds 7 and 21 to disperse 24 h-old P. aeruginosa biofilms was tested using the crystal violet staining assay (FIG. 1B). Biofilms were allowed to develop in the absence of compound for 24 h, after which non-biofilm material was removed by washing with buffer and fresh media with compound was added. Biofilm was quantified after an additional 24 h, and the amount of dispersed biofilm was determined via comparison of the amount of biofilm at 48 h in the presence of compound versus the amount of biofilm at 24 h in the absence of compound. 2-ABIs 7 and 21 were capable of strongly dispersing P. aeruginosa biofilms (˜80%), with half maximal dispersion DC50 values of 84 μM and 92 μM, respectively (FIG. 1B).
Compounds 7 and 21 were evaluated for their ability to disperse preformed P. aeruginosa biofilms. For biofilm dispersion assessment, the static CV biofilm assay described above was modified in order to introduce compound to preformed biofilm for an additional incubation period. Solvent evaporation delivery of compound was not possible in this format; thus, stock solutions of compounds 7 and 21 were prepared in 95:5 M9+:LB media. Stocks of 7 and 21 were prepared at 3.16 mM and 1 mM, respectively (21 was insoluble at 3.16 mM). These stocks were diluted in series to obtain final concentrations as follows: 10^x μM where x=3.5 (7 only), 3, 2.5, 2, 1.5 (21 only), 1, 0, −1, or −2. Biofilms were allowed to form in microtiter plates in the absence of compound for 24 h, after which non-biofilm material was removed by dumping and washing as normal with sterile PBS. After the second washing, 200 μL of fresh 95:5 M9+:LB media containing compound at various concentrations was added to the wells, and the plates were incubated at 37° C. for an additional 24 h. One set of wells was left empty in order to assess the amount of biofilm present after the first 24 h incubation, while another set of wells was given media without compound to assess the amount of biofilm at 48 h. […] After the second 24 h incubation, non-biofilm material was removed by dumping and washing 4× with PBS (the additional washing at 48 h was found necessary to completely remove detached Int biofilm that had settled over the SA biofilm; data not shown). Biofilm was fixed and quantified with CV as described above. The amount of dispersed biofilm was determined via comparison of the amount of biofilm at 48 h in the presence of compound versus the amount of biofilm in the “no compound” positive control at 24 h. A higher degree of error was often observed with this assay format due to the additional incubation and washing steps; thus, all compounds were tested in replicates of 6 wells.
DC50 values for biofilm dispersion by 7 and 21 were calculated using a sigmoidal curve fit (three parameters) and are reported with a 95% Cl.

[4] = solubility of stock in 95:5 M9+:LB media; format: physicochemical; conditions: at 3.16 mM in 95:5 M9+:LB media
Description: Compounds 7 and 21 were evaluated for their ability to disperse preformed P. aeruginosa biofilms. For biofilm dispersion assessment, the static CV biofilm assay described above was modified in order to introduce compound to preformed biofilm for an additional incubation period. Solvent evaporation delivery of compound was not possible in this format; thus, stock solutions of compounds 7 and 21 were prepared in 95:5 M9+:LB media. Stocks of 7 and 21 were prepared at 3.16 mM and 1 mM, respectively (21 was insoluble at 3.16 mM). These stocks were diluted in series to obtain final concentrations as follows: 10^x μM where x=3.5 (7 only), 3, 2.5, 2, 1.5 (21 only), 1, 0, −1, or −2. Biofilms were allowed to form in microtiter plates in the absence of compound for 24 h, after which non-biofilm material was removed by dumping and washing as normal with sterile PBS. After the second washing, 200 μL of fresh 95:5 M9+:LB media containing compound at various concentrations was added to the wells, and the plates were incubated at 37° C. for an additional 24 h. […] Biofilm was fixed and quantified with CV as described above. The amount of dispersed biofilm was determined via comparison of the amount of biofilm at 48 h in the presence of compound versus the amount of biofilm in the “no compound” positive control at 24 h. […]

[5] = system: COS-7 cells; experiment: fluorescence-based live/dead cytotoxicity assay; format: cell-based; conditions: 24 hrs, live/dead staining
Description: Experiments to characterize the toxicity of exemplary compound 21 in a model mammalian cell line were conducted by incubating COS-7 African Green Monkey kidney cells (American Type Culture Collection, Manassas, Va.), a fibroblast-like mammalian cell line, in the presence of varying amounts of compound 21 and characterizing resulting levels of cell death using a standard fluorescence-based live/dead assay. Cells were seeded in 96-well plates by adding 200 μL of a suspension containing 50,000 cells/mL in cell culture media (Gibco® DMEM supplemented with 10% (v/v) fetal bovine serum, 100 units/mL penicillin, and 100 μg/mL streptomycin) in individual wells of a black-walled, clear-bottomed 96-well cell culture plate (Costar 3603). […] Fluorescence microscopy images of the wells were acquired using an Olympus IX70 microscope and Metavue version 7.1.2.0 software package (Molecular Devices, Toronto, Canada). Images were analyzed using Image J 1.43u (National Institutes of Health; Washington, D.C.). Live and dead cell results were also analyzed by averaging the mean fluorescence from a minimum of six images taken from three replicate samples and normalized to untreated (live control) and methanol-treated (dead control) wells (see FIG. 20).

Nc1nc2ccccc2[nH]1 [Compound 7, 2-aminobenzimidazole]
biofilm inhibition in Gram-positive bacteria as reported [1]: no inhibition of biofilm formation
effect on constitutive GFP production / protein synthesis [2]: only inhibit the production of GFP at concentrations where bacterial growth is also inhibited; also recorded: do not simply globally affect protein synthesis
dispersion of preformed biofilm [3]: ~80%
effect on final OD600 measurement during dispersion [3]: without significantly affecting the final OD600 measurement
DC50 [3]: 84 µM

Cc1cc2nc(N)[nH]c2cc1C [Compound 21, 5,6-Dimethyl-2-aminobenzimidazole]
solubility [4]: insoluble
concentrations at which not substantially cytotoxic [5]: below 0.25 mM
effect on constitutive GFP production / protein synthesis [2]: only inhibit the production of GFP at concentrations where bacterial growth is also inhibited; also recorded: do not simply globally affect protein synthesis
dispersion of preformed biofilm [3]: ~80%
effect on final OD600 measurement during dispersion [3]: without significantly affecting the final OD600 measurement
DC50 [3]: 92 µM
